Measurements from patent US7612064B2, “Sulfopyrroles” (Takeda Pharmaceutical Company Limited, priority 2003, dated 2009).
Values belong to the compound of their own block, whether it stands above or below them.

Tests used:
[1] = Hoechst 33342 nuclear staining; type: cell-based; conditions: for Hoechst 33342 nuclear staining score, H460: H460 cells; for Hoechst 33342 nuclear staining score, HeLa: HeLa cells; for Hoechst 33342 nuclear staining score, Jily: Jily cells; for Hoechst 33342 nuclear staining score, Jurkat: Jurkat cells; for Hoechst 33342 nuclear staining score, MRC5: MRC5 cells;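 on all read-outs here: apoptotic nuclei scored 0 none 1 weak under 50% of cells 2 strong over 50% of cells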
Method in brief: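 After a further 30 min incubation, plates were inspected on a standard inverted fluorescence microscope. The fraction of apoptotic nuclei and other apoptosis-specific morphology were scored as 0 for no activity, 1 for weak activity in less than 50% of the cells, and 2 for strong activity in more than 50% of the cells.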

Jily = assay: MTS proliferation assay; type: cell-based; conditions: 72 h
Method in brief: (§1)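 Four-point treatment (0.3–10 μM final) ran 72 h in complete medium, with the compound-containing addition holding no more than 5% DMSO. Metabolic activity was then developed with MTS reagent over 3 h and quantified by absorbance (492 nm).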

MRC5 = assay: MTS proliferation assay; type: cell-based; conditions: MRC5, 72 h
Method in brief: as §1

HeLa = assay: MTS proliferation assay; type: cell-based, human; conditions: 72 h
Method in brief: as §1

Jurkat = assay: MTS proliferation assay; type: cell-based, human; conditions: 72 h
Method in brief: as §1

IC50 (HeLa): > 1 µM
IC50 (Jurkat): < 1 µM
Structure (SMILES): COc1cc(-c2cc(-c3cccnc3)cn2S(=O)(=O)c2ccc3c(c2)CCO3)cc(OC)c1OC [Example 86]
Hoechst 33342 nuclear staining score, H460 ([1]; conc 0.1): 0
Hoechst 33342 nuclear staining score, H460 ([1]; conc 0.3): 0
Hoechst 33342 nuclear staining score, H460 ([1]; conc 1): 0
Hoechst 33342 nuclear staining score, H460 ([1]; conc 3): 2 (strong activity comprising more than 50% of the cells)
Hoechst 33342 nuclear staining score, HeLa ([1]; conc 0.1): 0
Hoechst 33342 nuclear staining score, HeLa ([1]; conc 0.3): 0
Hoechst 33342 nuclear staining score, HeLa ([1]; conc 1): 0
Hoechst 33342 nuclear staining score, HeLa ([1]; conc 3): 1 (weak activity comprising less than 50% of the cells)
Hoechst 33342 nuclear staining score, Jily ([1]; conc 0.1): 0
Hoechst 33342 nuclear staining score, Jily ([1]; conc 0.3): 0
Hoechst 33342 nuclear staining score, Jily ([1]; conc 1): 1 (weak activity comprising less than 50% of the cells)
Hoechst 33342 nuclear staining score, Jily ([1]; conc 3): 2 (strong activity comprising more than 50% of the cells)
Hoechst 33342 nuclear staining score, Jurkat ([1]; conc 0.1): 0
Hoechst 33342 nuclear staining score, Jurkat ([1]; conc 0.3): 0
Hoechst 33342 nuclear staining score, Jurkat ([1]; conc 1): 2 (strong activity comprising more than 50% of the cells)
Hoechst 33342 nuclear staining score, Jurkat ([1]; conc 3): 2 (strong activity comprising more than 50% of the cells)
Hoechst 33342 nuclear staining score, MRC5 ([1]; conc 0.1): 0
Hoechst 33342 nuclear staining score, MRC5 ([1]; conc 0.3): 0
Hoechst 33342 nuclear staining score, MRC5 ([1]; conc 1): 0
Hoechst 33342 nuclear staining score, MRC5 ([1]; conc 3): 1 (weak activity comprising less than 50% of the cells)
Hoechst 33342 nuclear staining score, PBLs ([1]; conc 0.1): 0
Hoechst 33342 nuclear staining score, PBLs ([1]; conc 0.3): 0
Hoechst 33342 nuclear staining score, PBLs ([1]; conc 1): 0
Hoechst 33342 nuclear staining score, PBLs ([1]; conc 3): 0
IC50 (Jily): < 1 µM
IC50 (MRC5): > 1 µM

Structure (SMILES): COc1cc(-c2cc(-c3cccnc3)cn2S(=O)(=O)c2cn(C)cn2)cc(OC)c1OC [Example 87]
Hoechst 33342 nuclear staining score, H460 ([1]; conc 0.1): 0
Hoechst 33342 nuclear staining score, H460 ([1]; conc 0.3): 0
Hoechst 33342 nuclear staining score, H460 ([1]; conc 1): 0
Hoechst 33342 nuclear staining score, H460 ([1]; conc 3): 0
Hoechst 33342 nuclear staining score, HeLa ([1]; conc 0.1): 0
Hoechst 33342 nuclear staining score, HeLa ([1]; conc 0.3): 0
Hoechst 33342 nuclear staining score, HeLa ([1]; conc 1): 0
Hoechst 33342 nuclear staining score, HeLa ([1]; conc 3): 0
Hoechst 33342 nuclear staining score, Jily ([1]; conc 0.1): 0
Hoechst 33342 nuclear staining score, Jily ([1]; conc 0.3): 0
Hoechst 33342 nuclear staining score, Jily ([1]; conc 1): 0
Hoechst 33342 nuclear staining score, Jily ([1]; conc 3): 0
Hoechst 33342 nuclear staining score, Jurkat ([1]; conc 0.1): 0
Hoechst 33342 nuclear staining score, Jurkat ([1]; conc 0.3): 0
Hoechst 33342 nuclear staining score, Jurkat ([1]; conc 1): 0
Hoechst 33342 nuclear staining score, Jurkat ([1]; conc 3): 0
Hoechst 33342 nuclear staining score, MRC5 ([1]; conc 0.1): 0
Hoechst 33342 nuclear staining score, MRC5 ([1]; conc 0.3): 0
Hoechst 33342 nuclear staining score, MRC5 ([1]; conc 1): 0
Hoechst 33342 nuclear staining score, MRC5 ([1]; conc 3): 0
Hoechst 33342 nuclear staining score, PBLs ([1]; conc 0.1): 0
Hoechst 33342 nuclear staining score, PBLs ([1]; conc 0.3): 0
Hoechst 33342 nuclear staining score, PBLs ([1]; conc 1): 0
Hoechst 33342 nuclear staining score, PBLs ([1]; conc 3): 0
IC50 (Jily): > 1 µM
IC50 (MRC5): > 1 µM
IC50 (HeLa): > 1 µM
IC50 (Jurkat): > 1 µM

Structure (SMILES): COc1cc(-c2cc(-c3cccnc3)cn2S(=O)(=O)Cc2ccccc2)cc(OC)c1OC [Example 88]
Hoechst 33342 nuclear staining score, H460 ([1]; conc 0.1): 0
Hoechst 33342 nuclear staining score, H460 ([1]; conc 0.3): 0
Hoechst 33342 nuclear staining score, H460 ([1]; conc 1): 0
Hoechst 33342 nuclear staining score, H460 ([1]; conc 3): 0
Hoechst 33342 nuclear staining score, HeLa ([1]; conc 0.1): 0
Hoechst 33342 nuclear staining score, HeLa ([1]; conc 0.3): 0
Hoechst 33342 nuclear staining score, HeLa ([1]; conc 1): 0
Hoechst 33342 nuclear staining score, HeLa ([1]; conc 3): 0
Hoechst 33342 nuclear staining score, Jily ([1]; conc 0.1): 0
Hoechst 33342 nuclear staining score, Jily ([1]; conc 0.3): 0
Hoechst 33342 nuclear staining score, Jily ([1]; conc 1): 0
Hoechst 33342 nuclear staining score, Jily ([1]; conc 3): 0
Hoechst 33342 nuclear staining score, Jurkat ([1]; conc 0.1): 0
Hoechst 33342 nuclear staining score, Jurkat ([1]; conc 0.3): 0
Hoechst 33342 nuclear staining score, Jurkat ([1]; conc 1): 0
Hoechst 33342 nuclear staining score, Jurkat ([1]; conc 3): 0
Hoechst 33342 nuclear staining score, MRC5 ([1]; conc 0.1): 0
Hoechst 33342 nuclear staining score, MRC5 ([1]; conc 0.3): 0
Hoechst 33342 nuclear staining score, MRC5 ([1]; conc 1): 0
Hoechst 33342 nuclear staining score, MRC5 ([1]; conc 3): 0
Hoechst 33342 nuclear staining score, PBLs ([1]; conc 0.1): 0
Hoechst 33342 nuclear staining score, PBLs ([1]; conc 0.3): 0
Hoechst 33342 nuclear staining score, PBLs ([1]; conc 1): 0
Hoechst 33342 nuclear staining score, PBLs ([1]; conc 3): 0
IC50 (Jily): > 1 µM
IC50 (MRC5): > 1 µM
IC50 (HeLa): > 1 µM
IC50 (Jurkat): > 1 µM

Structure (SMILES): COc1cc(-c2cc(-c3cccnc3)cn2S(=O)(=O)/C=C/c2ccccc2)cc(OC)c1OC [Example 89]
Hoechst 33342 nuclear staining score, H460 ([1]; conc 0.1): 0
Hoechst 33342 nuclear staining score, H460 ([1]; conc 0.3): 0
Hoechst 33342 nuclear staining score, H460 ([1]; conc 1): 0
Hoechst 33342 nuclear staining score, H460 ([1]; conc 3): 0
Hoechst 33342 nuclear staining score, HeLa ([1]; conc 0.1): 0
Hoechst 33342 nuclear staining score, HeLa ([1]; conc 0.3): 0
Hoechst 33342 nuclear staining score, HeLa ([1]; conc 1): 0
Hoechst 33342 nuclear staining score, HeLa ([1]; conc 3): 0
Hoechst 33342 nuclear staining score, Jily ([1]; conc 0.1): 0
Hoechst 33342 nuclear staining score, Jily ([1]; conc 0.3): 0
Hoechst 33342 nuclear staining score, Jily ([1]; conc 1): 0
Hoechst 33342 nuclear staining score, Jily ([1]; conc 3): 1 (weak activity comprising less than 50% of the cells)
Hoechst 33342 nuclear staining score, Jurkat ([1]; conc 0.1): 0
Hoechst 33342 nuclear staining score, Jurkat ([1]; conc 0.3): 0
Hoechst 33342 nuclear staining score, Jurkat ([1]; conc 1): 0
Hoechst 33342 nuclear staining score, Jurkat ([1]; conc 3): 1 (weak activity comprising less than 50% of the cells)
Hoechst 33342 nuclear staining score, MRC5 ([1]; conc 0.1): 0
Hoechst 33342 nuclear staining score, MRC5 ([1]; conc 0.3): 0
Hoechst 33342 nuclear staining score, MRC5 ([1]; conc 1): 0
Hoechst 33342 nuclear staining score, MRC5 ([1]; conc 3): 0
Hoechst 33342 nuclear staining score, PBLs ([1]; conc 0.1): 0
Hoechst 33342 nuclear staining score, PBLs ([1]; conc 0.3): 0
Hoechst 33342 nuclear staining score, PBLs ([1]; conc 1): 0
Hoechst 33342 nuclear staining score, PBLs ([1]; conc 3): 0
IC50 (Jily): > 1 µM
IC50 (MRC5): > 1 µM
IC50 (HeLa): > 1 µM
IC50 (Jurkat): > 1 µM

Structure (SMILES): COc1cc(-c2cc(-c3cccnc3)cn2S(=O)(=O)c2cccs2)cc(OC)c1OC [Example 90]
Hoechst 33342 nuclear staining score, H460 ([1]; conc 0.1): 0
Hoechst 33342 nuclear staining score, H460 ([1]; conc 0.3): 0
Hoechst 33342 nuclear staining score, H460 ([1]; conc 1): 0
Hoechst 33342 nuclear staining score, H460 ([1]; conc 3): 2 (strong activity comprising more than 50% of the cells)
Hoechst 33342 nuclear staining score, HeLa ([1]; conc 0.1): 0
Hoechst 33342 nuclear staining score, HeLa ([1]; conc 0.3): 0
Hoechst 33342 nuclear staining score, HeLa ([1]; conc 1): 0
Hoechst 33342 nuclear staining score, HeLa ([1]; conc 3): 2 (strong activity comprising more than 50% of the cells)
Hoechst 33342 nuclear staining score, Jily ([1]; conc 0.1): 0
Hoechst 33342 nuclear staining score, Jily ([1]; conc 0.3): 0
Hoechst 33342 nuclear staining score, Jily ([1]; conc 1): 1 (weak activity comprising less than 50% of the cells)
Hoechst 33342 nuclear staining score, Jily ([1]; conc 3): 1 (weak activity comprising less than 50% of the cells)
Hoechst 33342 nuclear staining score, Jurkat ([1]; conc 0.1): 0
Hoechst 33342 nuclear staining score, Jurkat ([1]; conc 0.3): 0
Hoechst 33342 nuclear staining score, Jurkat ([1]; conc 1): 2 (strong activity comprising more than 50% of the cells)
Hoechst 33342 nuclear staining score, Jurkat ([1]; conc 3): 2 (strong activity comprising more than 50% of the cells)
Hoechst 33342 nuclear staining score, MRC5 ([1]; conc 0.1): 0
Hoechst 33342 nuclear staining score, MRC5 ([1]; conc 0.3): 0
Hoechst 33342 nuclear staining score, MRC5 ([1]; conc 1): 0
Hoechst 33342 nuclear staining score, MRC5 ([1]; conc 3): 0
Hoechst 33342 nuclear staining score, PBLs ([1]; conc 0.1): 0
Hoechst 33342 nuclear staining score, PBLs ([1]; conc 0.3): 0
Hoechst 33342 nuclear staining score, PBLs ([1]; conc 1): 0
Hoechst 33342 nuclear staining score, PBLs ([1]; conc 3): 0
IC50 (Jily): < 1 µM
IC50 (MRC5): > 1 µM
IC50 (HeLa): > 1 µM
IC50 (Jurkat): < 1 µM
